Entries after “also recorded” stand apart in the source; their conditions may differ.
Legend:
[1] = test system: HEK293T d2GFP reporter line; test: GFP disruption assay; assay type: cell-based, human; settings: for gene editing activity / efficiency (GFP reporter disruption): HEK293T GFP reporter cell line
From the text: GFP disruption assay. HEK293T cells were first lentivirally transduced with a destabilized GFP (d2GFP) reporter (derived from Addgene #14760). The resulting HEK293T d2GFP reporter line was then transiently transfected with indicated AsCas12a vector and a vector expressing GFP-targeting crRNA. This d2GFP HEK293T reporter line was used to evaluate the knockout efficiency of seven Addgene-available Cas12a systems (Butyrivibrio sp., Thiomicrospira sp. XS5, Moraxella bovoculi, Prevotella bryantii, Bacteroidetes oral, Lachnospiraceae bacterium, and Acidaminococcus). In addition, AsCas12a vector contained 1, 2, 4, or 6 SV40 or c-Myc NLS cloned into either the N- or C-terminus. The crRNA vector contained an expression marker for mCherry for successful transfection tracking. Cells were cultured for 3 days and subjected to flow cytometry to measure knockdown of GFP using the Guava Easycyte 10 HT instrument (Millipore). Percent GFP disruption is plotted. Two independent GFP-targeting crRNA are presented.

K562 cells = test: Competition-based cellular proliferation assay; assay type: cell-based
From the text: Competition-based cellular proliferation assays. Indicated AsCas12a-expressing cell lines were infected with a lentivirus (pRG212) encoding crRNA, targeting essential genes or known cancer dependencies, linked to a GFP reporter, to track successful transduction, at a multiplicity of infection (MOI) of around 0.2-0.5. The percentage of crRNA-positive (GFP-positive) cell population was monitored over time using the Guava Easycyte 10 HT instrument (Millipore). To assess the impact of a specific single-crRNA or dual-crRNA on cellular proliferation, final time point GFP % was divided by initial time point GFP % to calculate the negative selection fold-change of the crRNA-positive cell population.
To address the low knockout efficiency in mammalian cells, the AsCas12a system was subjected to three levels of optimization. In order to evaluate the knockout efficiency of the system, AsCas12a and its crRNA were expressed using a two-vector lentiviral expression strategy and conducted a competition-based cellular proliferation assay, a reliable proxy for dropout screening (FIG. 1A, 1B). crRNAs targeting known essential genes were designed, including replication protein PCNA and cyclin-dependent kinase CDK1. AsCas12a knockout efficiency was then assessed by measuring the negative selection strength of essential gene-targeting crRNAs in a 16-day time-course. […]

Substance	gene editing activity / efficiency (GFP reporter disruption) [1]	knockout efficiency relative to SpCas9 ([1]; in human cells)	knockout efficiency (K562 cells; crRNAs targeting essential genes PCNA and CDK1, 16-day time-course)	effect on cellular proliferation (toxicity to the cells) (K562 cells; non-targeting crRNAs and crRNAs targeting introns of PCNA and CDK1)
AsCas12a: Acidaminococcus Cas12a, wild type RNA-programmable DNA endonuclease	high gene editing activity	approximately one third		
enAsCas12a: AsCas12a with E174R and S542R mutations, used with 6xNLS and dual-DR crRNA; the improved/engineered Cas12a system	comparable to Cas9		enhances knockout efficiency	no obvious effect on cellular proliferation; also recorded: does not significantly affect cellular proliferation
